Results on 31 compounds are retold here after patent US7732457B2, “Amino-pyridines as inhibitors of β-secretase” (Wyeth LLC, priority 2005, dated 2010).

Usually IC50 stands for the concentration that gives 50% inhibition. In general, melting point refers to the temperature of the solid-liquid transition.

One series has as its target human BACE1 (Homo sapiens, UniProt P56817). Nature of the series: BACE-1 fluorescent kinetic assay (cleavage of peptide substrate WABC-6). As to conditions: 10 nM enzyme, 25 μM substrate WABC-6, Na-Acetate pH 4.5, room temperature. Type of series: biochemical. Here is the method: Evaluation of BACE-1 Binding Affinity of Test Compounds
Fluorescent Kinetic Assay
Dilution and mixing steps: total reaction volume: 100 μL
100 μM substrate dilution in 1×PBS was prepared, and
Fluorescence Readings: Readings at λex 320 nm and λem 420 nm are taken every 40 sec for 30 min at room temperature and the linear slope for substrate cleavage rate (vi) determined.

Where a name gives a salt, the structure may show the parent alone.

human BACE1, sequence (P56817 46-501): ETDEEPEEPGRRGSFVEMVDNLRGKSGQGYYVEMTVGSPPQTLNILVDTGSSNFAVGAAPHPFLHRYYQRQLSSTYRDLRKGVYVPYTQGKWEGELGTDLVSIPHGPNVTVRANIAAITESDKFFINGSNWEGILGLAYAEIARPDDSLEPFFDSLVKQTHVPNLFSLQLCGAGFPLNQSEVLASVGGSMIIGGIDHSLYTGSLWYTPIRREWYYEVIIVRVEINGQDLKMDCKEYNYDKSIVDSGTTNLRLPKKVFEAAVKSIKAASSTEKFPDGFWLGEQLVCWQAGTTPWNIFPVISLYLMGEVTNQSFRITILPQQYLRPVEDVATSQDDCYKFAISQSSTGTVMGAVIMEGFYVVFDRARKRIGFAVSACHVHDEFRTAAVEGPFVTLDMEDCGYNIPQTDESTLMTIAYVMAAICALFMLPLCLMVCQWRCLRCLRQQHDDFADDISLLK

`CCCCCOc1ccc(-c2ccc(-c3ccccc3Cl)n2Cc2ccc(N)c(N)n2)cc1` [Example 42B, 6-[2-(2-Chlorophenyl)-5-(4-pentyloxyphenyl)pyrrol-1-ylmethyl]pyridine-2,3-diamine hydrochloride]: the “BACE 1 IC50 μM” value on human BACE1 was “D (D = >5.0 μM-0.10 = μM)”.
For the compound `CCCOc1ccc(-c2ccc(-c3ccccc3Cl)n2Cc2ccc(OCCO)c(N)n2)cc1` [Example 54, 2-[(2-amino-6-{[2-(2-chlorophenyl)-5-(4-propoxyphenyl)-1H-pyrrol-1-yl]methyl}pyridine-3-yl)oxy]ethanol], the melting point fell in the range of 89 to 92 °C. The compound further registered an IC50 against human BACE1 of 110 to 1000 nM.
Turning to `CC(=O)c1ccc(Oc2ccc(-c3ccc(-c4ccccc4Cl)n3Cc3cccc(N)n3)cc2)cc1` [Example 37, 1-(4-{4-[1-(6-Aminopyridin-2-ylmethyl)-5-(2-chlorophenyl)-1H-pyrrol-2-yl]phenoxy}-phenyl)ethanone hydrochloride], at human BACE1, the concentration for half-maximal inhibition (IC50) was 110 to 1000 nM.
The compound `Cl.N#CCCCCCOc1ccc(-c2ccc(-c3ccccc3Cl)n2Cc2cccc(N)n2)cc1` [Example 20, 6-{4-[1-(6-Amino-pyridin-2-ylmethyl)-5-(2-chloro-phenyl)-1H-pyrrol-2-yl]-phenoxy}-hexanenitrile hydrochloride] had a melting point of 98 to 106 °C. For the same compound, on human BACE1, the IC50 lay in the range of 1100 to 5000 nM.
`Nc1cccc(Cn2c(-c3ccc(Oc4ncccn4)cc3)ccc2-c2ccccc2Cl)n1` [Example 31, 6-{2-(2-Chloro-phenyl)-5-[4-(Pyrimidin-2-yloxy)-phenyl]-pyrrol-1-ylmethyl}-pyridin-2-ylamine hydrochloride]: the IC50 against human BACE1 was 1100 to 5000 nM.
With `Nc1cccc(Cn2c(-c3ccc(Oc4ccc(Br)cc4)cc3)ccc2-c2ccccc2Cl)n1` [Example 38, 6-[2-[4-(4-Bromophenoxy)phenyl]-5-(2-chlorophenyl)pyrrol-1-ylmethyl]pyridin-2-ylamine hydrochloride], the “BACE 1 IC50 μM” value at human BACE1 is “D (D = >5.0 μM-0.10 = μM)”.
On to `CCCCCNc1ccc(-c2ccc(-c3ccccc3Cl)n2Cc2cccc(N)n2)cc1` [Example 53, 6-[2-(2-Chloro-phenyl)-5-(4-pentylamino-phenyl)-pyrrol-1-ylmethyl]-pyridin-2-ylamine hydrochloride], for which the half-inhibitory concentration (IC50) at human BACE1 is 1100 to 5000 nM.
With `CCCCCOc1ccc(-c2ccc(-c3ccccc3Cl)n2Cc2ccc(OC)c(NCCCO)n2)cc1` [Example 41, 3-{6-[2-(2-Chloro-phenyl)-5-(4-pentyloxy-phenyl)-pyrrol-1-ylmethyl]-3-methoxy-pyridin-2-ylamino}-propan-1-ol hydrochloride], at human BACE1, the “BACE 1 IC50 μM” value was “D (D = >5.0 μM-0.10 = μM)”.
`Cl.N#CCCCCOc1ccc(-c2ccc(-c3ccccc3Cl)n2Cc2cccc(N)n2)cc1` [Example 19, 5-{4-[1-(6-Amino-pyridin-2-ylmethyl)-5-(2-chloro-phenyl)-1H-pyrrol-2-yl]-phenoxy}-pentanenitrile hydrochloride] gave a melting point of 126 to 130 °C. Further, the IC50 at human BACE1 lay in the range of 110 to 1000 nM.
With `Nc1cccc(Cn2c(-c3ccc(-c4ccccc4)cc3)ccc2-c2ccccc2Cl)n1` [Example 27, 6-[2-Biphenyl-4-yl-5-(2-chlorophenyl)pyrrol-1-ylmethyl]pyridin-2-ylamine], the “BACE 1 IC50 μM” value at human BACE1 is recorded as “D (D = >5.0 μM-0.10 = μM)”.
Turning to `CCCOc1ccc(-c2ccc(-c3ccccc3)n2Cc2cccc(N)n2)cc1` [Example 56, 6-{[2-phenyl-5-(4-propoxyphenyl)-1H-pyrrol-1-yl]methyl}pyridin-2-amine], the melting point lay in the range of 106 to 107 °C. The compound further showed an IC50 against human BACE1 of 1100 to 5000 nM.
In the case of `CCOC(=O)c1ccc(-c2ccc(-c3ccccc3)n2Cc2cccc(N)n2)cc1` [Example 58, Ethyl 4-{1-[(6-aminopyridin-2-yl)methyl]-5-phenyl-1H-pyrrol-2-yl}benzoate], the melting point lay within 161 to 162 °C. Moreover, at human BACE1, the “BACE 1 IC50 μM” value is on record as “D (D = >5.0 μM-0.10 = μM)”.
`Nc1cccc(Cn2c(-c3ccc(Oc4nccs4)cc3)ccc2-c2ccccc2Cl)n1` [Example 32, 6-{2-(2-Chloro-phenyl)-5-[4-(thiazol-2-yloxy)-phenyl]-pyrrol-1-ylmethyl}-pyridin-2-ylamine hydrochloride] registered an IC50 at human BACE1 of 110 to 1000 nM.
Consider `Nc1cccc(Cn2c(-c3ccc(Br)cc3)ccc2-c2ccccc2Cl)n1` [Example 4, 6-[2-(4-bromo-phenyl)-5-(2-chloro-phenyl)-pyrrol-1-ylmethyl]-pyridin-2-ylamine], for which the melting point was 154 to 158 °C. The compound further displayed a concentration for half-maximal inhibition (IC50) against human BACE1 of 1100 to 5000 nM.
Turning to `CCOC(=O)c1ccc(-c2ccc(-c3ccc(F)cc3)n2Cc2cccc(N)n2)cc1` [Example 57, Ethyl 4-[1-[(6-aminopyridin-2-yl)methyl]-5-(4-fluorophenyl)-1H-pyrrol-2-yl]benzoate], the melting point lay within 172 to 173 °C. In addition, the “BACE 1 IC50 μM” value on human BACE1 was “D (D = >5.0 μM-0.10 = μM)”.
`Nc1cccc(Cn2c(-c3ccc(-c4cccnc4)cc3)ccc2-c2ccccc2Cl)n1` [Example 28] registered a melting point of 163 to 166 °C. For the same compound, the IC50 on human BACE1 lay in the range of 110 to 1000 nM.
With `CCCCCOc1ccc(-c2ccc(-c3ccccc3Cl)n2Cc2ccc(O)c(N)n2)cc1` [Example 42A, 2-Amino-6-[2-(2-chlorophenyl)-5-(4-pentyloxyphenyl)pyrrol-1-ylmethyl]pyridin-3-ol hydrochloride], on human BACE1, the “BACE 1 IC50 μM” value was “D (D = >5.0 μM-0.10 = μM)”.
Same read-out and setting: next, `Nc1cccc(Cn2c(-c3ccc(NC(=O)c4ccccc4)cc3)ccc2-c2ccccc2Cl)n1` [Example 3, N-{4-[1-(6-Amino-pyridin-2-ylmethyl)-5-(2-chloro-phenyl)-1H-pyrrol-2-yl]-phenyl}-benzamide]: “D (D = >5.0 μM-0.10 = μM)”.
As to `Nc1cccc(Cn2c(-c3ccc(Oc4ncccn4)cc3)ccc2-c2ccccc2Cl)n1` (as salt: hydrochloride) [Example 31, 6-{2-(2-Chloro-phenyl)-5-[4-(Pyrimidin-2-yloxy)-phenyl]-pyrrol-1-ylmethyl}-pyridin-2-ylamine hydrochloride], the melting point was in the range of 135 to 140 °C.
With `CCCCCCOc1ccc(-c2ccc(-c3ccccc3Cl)n2Cc2cccc(N)n2)cc1.Cl` [Example 17, 6-[2-(2-Chloro-phenyl)-5-(4-hexyloxy-phenyl)-pyrrol-1-ylmethyl]-pyridin-2-ylamine hydrochloride], at human BACE1, the “BACE 1 IC50 μM” value is “D (D = >5.0 μM-0.10 = μM)”.
In turn, `Nc1nc(Cn2c(-c3ccc(Br)cc3)ccc2-c2ccccc2Cl)ccc1OCCO` [Example 47, 2-{2-Amino-6-[2-(4-bromo-phenyl)-5-(2-chloro-phenyl)-pyrrol-1-ylmethyl]-pyridin-3-yloxy}-ethanol] showed a melting point of 80 to 82 °C. The same compound had an IC50 on human BACE1 of 110 to 1000 nM.
With `Nc1cccc(Cn2c(-c3ccc(Oc4ccc(Br)cc4)cc3)ccc2-c2ccccc2Cl)n1` (as salt: hydrochloride) [Example 38, 6-[2-[4-(4-Bromophenoxy)phenyl]-5-(2-chlorophenyl)pyrrol-1-ylmethyl]pyridin-2-ylamine hydrochloride], the melting point lay in the range of 130 to 138 °C.
The compound `CCCCCNc1ccc(-c2ccc(-c3ccccc3Cl)n2Cc2cccc(N)n2)cc1` (as salt: hydrochloride) [Example 53, 6-[2-(2-Chloro-phenyl)-5-(4-pentylamino-phenyl)-pyrrol-1-ylmethyl]-pyridin-2-ylamine hydrochloride] had a melting point of 145 to 147 °C.
As to `CCCCC(=O)Nc1ccc(-c2ccc(-c3ccccc3Cl)n2Cc2cccc(N)n2)cc1` [Example 52, Pentanoic acid {4-[1-(6-amino-pyridin-2-ylmethyl)-5-(2-chlorophenyl)-1H-pyrrol-2-yl]-phenyl}-amide], the melting point was in the range of 145 to 150 °C. Also, at human BACE1, the IC50 lay in the range of 1100 to 5000 nM.
For `Nc1cccc(Cn2c(-c3ccc(Oc4nccs4)cc3)ccc2-c2ccccc2Cl)n1` (as salt: hydrochloride) [Example 32, 6-{2-(2-Chloro-phenyl)-5-[4-(thiazol-2-yloxy)-phenyl]-pyrrol-1-ylmethyl}-pyridin-2-ylamine hydrochloride], the melting point lay within 126 to 130 °C.
For `CCNC(=O)c1ccc(-c2ccc(-c3ccc(F)cc3)n2Cc2cccc(N)n2)cc1` [Example 61, 4-[1-[(6-aminopyridin-2-yl)methyl]-5-(4-fluorophenyl)-1H-pyrrol-2-yl]-N-ethylbenzamide], the melting point lay in the range of 184 to 185 °C. Further, the 50% inhibitory concentration (IC50) at human BACE1 was 1100 to 5000 nM.
On to `CCCCCOc1ccc(-c2ccc(-c3ccccc3Cl)n2Cc2ccc(OCCCO)c(N)n2)cc1` [Example 43A, 3-{(2-Amino-6-[2-(2-chlorophenyl)-5-(4-pentyloxyphenyl)pyrrol-1-ylmethyl]pyridin-3-yloxy}propan-1-ol hydrochloride], for which the “BACE 1 IC50 μM” value on human BACE1 was “D (D = >5.0 μM-0.10 = μM)”.
Same read-out and setting: next, `CCCCCOc1ccc(-c2ccc(-c3ccccc3Cl)n2Cc2ccc(OCCCC#N)c(N)n2)cc1` [Example 43B, 4-{2-Amino-6-[2-(2-chlorophenyl)-5-(4-pentyloxyphenyl)pyrrol-1-ylmethyl]-pyridin-3-yloxy}butyronitrile hydrochloride]: “D (D = >5.0 μM-0.10 = μM)”; `CCCCCOc1ccc(-c2ccc(-c3ccccc3Cl)n2Cc2ccc(OC)c(N)n2)cc1` [Example 40, 6-[2-(2-Chlorophenyl)-5-(4-pentyloxyphenyl)-pyrrol-1-ylmethyl]-3-methoxypyridin-2-ylamine hydrochloride]: “D (D = >5.0 μM-0.10 = μM)”.
`Nc1cccc(Cn2c(-c3ccc(-c4cncnc4)cc3)ccc2-c2ccccc2Cl)n1` [Example 29, 6-[2-(2-Chloro-phenyl)-5-(4-pyrimidin-5-yl-phenyl)-pyrrol-1-ylmethyl]-pyridin-2-ylamine] displayed an IC50 on human BACE1 of 110 to 1000 nM.
`CCCCCOc1ccc(-c2ccc(-c3ccccc3Cl)n2Cc2ccc(OC)c(NCCCO)n2)cc1` (as salt: hydrochloride) [Example 41, 3-{6-[2-(2-Chloro-phenyl)-5-(4-pentyloxy-phenyl)-pyrrol-1-ylmethyl]-3-methoxy-pyridin-2-ylamino}-propan-1-ol hydrochloride] returned a melting point of 86 to 88 °C.
